Legend:
Assay in all cases: Ras-Raf disruption / FRET / MOA assay (BRAF RBD)
Assay type in all cases: biochemical
KRAS G12C = KRAS G12C (Homo sapiens, UniProt P01116+P62937, G12C); settings: Ras-Raf disruption, with Cyclophilin A; read-out: KRAS G12C FRET data IC50
Method in brief: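 TR-FRET read-out after 1.5 h with anti-His Eu-W1024 (10 nM) and anti-GST APC (50 nM), following 3 h at 25 °C of compound (top 30 μM, 3-fold, 10 points) with 25 μM Cyclophilin A, 12.5 nM GMPPNP-loaded K-Ras G12C and 50 nM BRAF RBD; IC50 reported.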

NRAS Q61K = NRAS Q61K (Homo sapiens, UniProt P01111+P62937, Q61K); settings: NRAS Q61K; read-out: NRAS Q61K FRET data IC50
Method in brief: (§1)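 Compound-induced Ras–Cyclophilin A ternary complex disrupting BRAF RBD binding, read as IC50 from reduced TR-FRET ratio relative to DMSO. Final: Ras-GMPPNP 12.5 nM, BRAF RBD 50 nM, Cyclophilin A 25 μM, top compound 30 μM (3-fold, 10 points); 3 h at 25 °C, then 1.5 h with detection antibodies.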

KRAS G12D = KRAS G12D (Homo sapiens, UniProt P01116+P62937, G12D); settings: Ras-Raf disruption, with Cyclophilin A; read-out: KRAS G12D FRET data IC50
Method in brief: as §1

KRAS G12S = KRAS G12S (Homo sapiens, UniProt P01116+P62937, G12S); settings: Ras-Raf disruption, with Cyclophilin A; read-out: KRAS G12S FRET data IC50
Method in brief: as §1

KRAS WT = KRAS WT (Homo sapiens, UniProt P01116+P62937); settings: Ras-Raf disruption, with Cyclophilin A; read-out: KRAS WT FRET data IC50
Method in brief: as §1

KRAS Q61H = KRAS Q61H (Homo sapiens, UniProt P01116+P62937, Q61H); settings: KRAS Q61H; read-out: KRAS Q61H FRET data IC50
Method in brief: as §1

KRAS G13D = KRAS G13D (Homo sapiens, UniProt P01116+P62937, G13D); settings: Ras-Raf disruption, with Cyclophilin A; read-out: KRAS G13D FRET data IC50
Method in brief: as §1

NRAS Q61R = NRAS Q61R (Homo sapiens, UniProt P01111+P62937, Q61R); settings: NRAS Q61R; read-out: NRAS Q61R FRET data IC50
Method in brief: as §1

NRAS WT = NRAS WT (Homo sapiens, UniProt P01111+P62937); settings: NRAS WT; read-out: NRAS WT FRET data IC50
Method in brief: as §1

KRAS G13C = KRAS G13C (Homo sapiens, UniProt P01116+P62937, G13C); settings: Ras-Raf disruption, with Cyclophilin A; read-out: KRAS G13C FRET data IC50
Method in brief: as §1

NRAS G12C = NRAS G12C (Homo sapiens, UniProt P01111+P62937, G12C); settings: NRAS G12C; read-out: NRAS G12C FRET data IC50
Method in brief: as §1

KRAS G12V = KRAS G12V (Homo sapiens, UniProt P01116+P62937, G12V); settings: Ras-Raf disruption, with Cyclophilin A; read-out: KRAS G12V FRET data IC50
Method in brief: as §1

Sequence of KRAS G12D (P01116 1-169 isoform P01116-2 G12D limits assumed): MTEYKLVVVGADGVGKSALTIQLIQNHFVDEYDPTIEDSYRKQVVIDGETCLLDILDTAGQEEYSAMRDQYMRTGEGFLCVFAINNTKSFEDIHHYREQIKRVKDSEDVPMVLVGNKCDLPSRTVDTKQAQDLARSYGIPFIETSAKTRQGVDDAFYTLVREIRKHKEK
Sequence of KRAS G12D (P62937 whole entry): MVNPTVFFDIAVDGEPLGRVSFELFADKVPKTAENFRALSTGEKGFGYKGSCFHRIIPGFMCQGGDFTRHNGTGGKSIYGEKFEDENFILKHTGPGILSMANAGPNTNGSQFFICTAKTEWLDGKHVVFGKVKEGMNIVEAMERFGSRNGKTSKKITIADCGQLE
Sequence of KRAS G13C (P01116 1-169 isoform P01116-2 G13C limits assumed): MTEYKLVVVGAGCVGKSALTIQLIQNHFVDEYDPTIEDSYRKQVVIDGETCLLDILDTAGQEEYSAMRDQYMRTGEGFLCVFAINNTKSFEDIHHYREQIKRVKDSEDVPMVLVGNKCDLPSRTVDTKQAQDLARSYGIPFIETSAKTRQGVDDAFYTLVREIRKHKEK
Sequence of KRAS G13C (P62937 whole entry): as the sequence (P62937 whole entry) above
Sequence of KRAS G12S (P01116 1-169 isoform P01116-2 G12S limits assumed): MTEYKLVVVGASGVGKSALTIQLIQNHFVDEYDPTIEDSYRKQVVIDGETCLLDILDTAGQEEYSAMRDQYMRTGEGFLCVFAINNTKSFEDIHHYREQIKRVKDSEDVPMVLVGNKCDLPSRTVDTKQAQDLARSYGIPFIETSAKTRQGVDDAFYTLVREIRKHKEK
Sequence of KRAS G12S (P62937 whole entry): as the sequence (P62937 whole entry) above
Sequence of NRAS WT (P01111 whole entry): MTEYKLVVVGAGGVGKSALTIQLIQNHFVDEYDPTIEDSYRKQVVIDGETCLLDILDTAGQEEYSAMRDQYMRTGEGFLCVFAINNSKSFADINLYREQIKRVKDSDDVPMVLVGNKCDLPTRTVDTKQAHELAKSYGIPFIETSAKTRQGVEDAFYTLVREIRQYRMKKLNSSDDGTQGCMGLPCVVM
Sequence of NRAS WT (P62937 whole entry): as the sequence (P62937 whole entry) above
Sequence of KRAS G12C (P01116 1-169 isoform P01116-2 G12C limits assumed): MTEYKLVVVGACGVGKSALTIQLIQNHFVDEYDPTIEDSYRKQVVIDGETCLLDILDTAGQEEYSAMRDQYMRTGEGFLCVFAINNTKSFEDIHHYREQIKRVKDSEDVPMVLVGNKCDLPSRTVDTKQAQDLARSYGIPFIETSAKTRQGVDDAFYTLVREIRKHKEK
Sequence of KRAS G12C (P62937 whole entry): as the sequence (P62937 whole entry) above
Sequence of KRAS Q61H (P01116 1-169 isoform P01116-2 Q61H limits assumed): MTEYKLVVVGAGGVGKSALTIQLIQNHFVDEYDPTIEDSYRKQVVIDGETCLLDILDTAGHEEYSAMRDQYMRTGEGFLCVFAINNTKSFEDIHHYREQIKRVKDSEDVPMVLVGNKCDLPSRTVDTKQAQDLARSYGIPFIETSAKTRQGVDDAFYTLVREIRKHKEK
Sequence of KRAS Q61H (P62937 whole entry): as the sequence (P62937 whole entry) above
Sequence of KRAS G13D (P01116 1-169 isoform P01116-2 G13D limits assumed): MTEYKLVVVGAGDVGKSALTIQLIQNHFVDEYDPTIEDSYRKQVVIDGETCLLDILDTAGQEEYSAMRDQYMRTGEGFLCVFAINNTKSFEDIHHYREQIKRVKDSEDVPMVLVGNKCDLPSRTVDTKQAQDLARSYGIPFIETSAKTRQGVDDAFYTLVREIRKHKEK
Sequence of KRAS G13D (P62937 whole entry): as the sequence (P62937 whole entry) above
Sequence of NRAS G12C (P01111 whole entry G12C): as the sequence (P01111 whole entry) above, with G12C counted along it
Sequence of NRAS G12C (P62937 whole entry): as the sequence (P62937 whole entry) above
Sequence of KRAS WT (P01116 1-169 isoform P01116-2 limits assumed): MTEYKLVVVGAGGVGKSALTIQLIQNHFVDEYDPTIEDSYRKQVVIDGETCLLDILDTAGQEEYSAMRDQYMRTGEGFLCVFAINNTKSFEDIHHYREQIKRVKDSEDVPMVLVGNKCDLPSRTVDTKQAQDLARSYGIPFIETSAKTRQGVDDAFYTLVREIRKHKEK
Sequence of KRAS WT (P62937 whole entry): as the sequence (P62937 whole entry) above
Sequence of NRAS Q61R (P01111 whole entry Q61R): as the sequence (P01111 whole entry) above, with Q61R counted along it
Sequence of NRAS Q61R (P62937 whole entry): as the sequence (P62937 whole entry) above
Sequence of KRAS G12V (P01116 1-169 isoform P01116-2 G12V limits assumed): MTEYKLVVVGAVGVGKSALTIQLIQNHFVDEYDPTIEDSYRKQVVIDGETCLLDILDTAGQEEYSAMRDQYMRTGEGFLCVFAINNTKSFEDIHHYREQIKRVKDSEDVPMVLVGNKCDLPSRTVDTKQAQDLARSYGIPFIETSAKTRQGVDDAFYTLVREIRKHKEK
Sequence of KRAS G12V (P62937 whole entry): as the sequence (P62937 whole entry) above
Sequence of NRAS Q61K (P01111 whole entry Q61K): as the sequence (P01111 whole entry) above, with Q61K counted along it
Sequence of NRAS Q61K (P62937 whole entry): as the sequence (P62937 whole entry) above

Row | Structure (SMILES) | IC50 (KRAS G12C) [nM] | IC50 (NRAS Q61K) [nM] | IC50 (KRAS G12D) [nM] | IC50 (KRAS G12S) [nM] | IC50 (KRAS WT) [nM] | IC50 (KRAS Q61H) [nM] | IC50 (KRAS G13D) [nM] | IC50 (NRAS Q61R) [nM] | IC50 (NRAS WT) [nM] | IC50 (KRAS G13C) [nM] | IC50 (NRAS G12C) [nM] | IC50 (KRAS G12V) [nM]
1 | CCn1c(-c2cccnc2[C@H](C)OC)c2c3cc(ccc31)-c1cc(O)cc(c1)C[C@H](NC(=O)[C@H](C(C)C)N(C)C(=O)C1CCN(S(=O)(=O)[C@@H]3CN3C)CC1)C(=O)N1CCC[C@H](N1)C(=O)OCC(C)(C)C2 (single isomer, unassigned) [Example 119] | 10 to 100 | 100 to 1000 | 1000 to 10000 | 100 to 1000 | 100 to 1000 | 10 to 100 | 100 to 1000 | 1000 to 10000 | 100 to 1000 | 10 to 100 | 100 to 1000 | 100 to 1000
2 | CCn1c(-c2cccnc2[C@H](C)OC)c2c3cc(ccc31)-c1cc(O)cc(c1)C[C@H](NC(=O)[C@H](C(C)C)N(C)C(=O)[C@@H]1CCN(C(=O)[C@H]3CN3)[C@@H]1C)C(=O)N1CCC[C@H](N1)C(=O)OCC(C)(C)C2 (atropisomer, axis not shown) [Example 207] | 10 to 100 | 100 to 1000 | 100 to 1000 | 10 to 100 | 10 to 100 | 10 to 100 | 100 to 1000 | 100 to 1000 | 10 to 100 | 10 to 100 | 10 to 100 | 10 to 100
3 | CCn1c(-c2cccnc2[C@H](C)OC)c2c3cc(ccc31)-c1cc(O)cc(c1)C[C@H](NC(=O)[C@H](C(C)C)N(C)C(=O)N(C)CCN(C)C(=O)[C@H]1CN1)C(=O)N1CCC[C@H](N1)C(=O)OCC(C)(C)C2 (atropisomer, axis not shown) [Example 204] | < 10 | 100 to 1000 | 100 to 1000 | 10 to 100 | 10 to 100 | 10 to 100 | 10 to 100 | 100 to 1000 | 10 to 100 | 10 to 100 | < 10 | 10 to 100
4 | CCn1c(-c2cccnc2[C@H](C)OC)c2c3cc(ccc31)-c1cc(O)cc(c1)C[C@H](NC(=O)[C@H](C(C)C)N(C)C(=O)N1CC[C@@H](N(C)C(=O)[C@H]3CN3)C1)C(=O)N1CCC[C@H](N1)C(=O)OCC(C)(C)C2 (atropisomer, axis not shown) [Example 252] | < 10 | 100 to 1000 | 100 to 1000 | 100 to 1000 | 10 to 100 | 10 to 100 | 100 to 1000 | 100 to 1000 | 10 to 100 | 10 to 100 | < 10 | 100 to 1000
5 | CCn1c(-c2cccnc2[C@H](C)OC)c2c3cc(ccc31)-c1cc(O)cc(c1)C[C@H](NC(=O)[C@H](C(C)C)N(C)C(=O)N1CC[C@H](N(C)C(=O)[C@@H]3CN3)C1)C(=O)N1CCC[C@H](N1)C(=O)OCC(C)(C)C2 (atropisomer, axis not shown) [Example 255] | 10 to 100 | 100 to 1000 | 100 to 1000 | 10 to 100 | 100 to 1000 | 10 to 100 | 100 to 1000 | 100 to 1000 | 10 to 100 | 10 to 100 | 10 to 100 | 100 to 1000
6 | CCn1c(-c2cccnc2[C@H](C)OC)c2c3cc(ccc31)-c1cc(O)cc(c1)C[C@H](NC(=O)[C@H](C(C)C)N(C)C(=O)[C@@H]1CCCN(C(=O)[C@H]3CN3)C1)C(=O)N1CCC[C@H](N1)C(=O)OCC(C)(C)C2 (atropisomer, axis not shown) [Example 237] | 10 to 100 | 100 to 1000 | 100 to 1000 | 10 to 100 | 10 to 100 | 10 to 100 | 100 to 1000 | 100 to 1000 | 10 to 100 | 10 to 100 | 10 to 100 | 100 to 1000
